Literature values in patent US12052992B2, “Insecticidal composition” (CLARKE MOSQUITO CONTROL PRODUCTS, INC., priority 2017, dated 2024).

Conditions: comparison value for water

## O [water]
  evaporation rate λ: 62.40 μm^2 s^−1° C.^−1
